Key:
[1] = system: IL10 secretion by TMD8 ABC-DLBCL cells; assay: Human IL10 Mesoscale assay (TMD-8); format: cell-based; conditions: Homo sapiens, TMD8; TMD-8 cells, 24 h
Summary of the method: (§1)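 After 24 h at 37 °C with test compounds (15 μM down to 58.6 nM, 9 twofold steps, 0.3% DMSO), IL6 and IL10 secreted by 100,000 OCI-LY3 or TMD8 cells per well were measured in supernatants with a Mesoscale immunoassay. Data were scaled between DMSO wells (high) and RN486 treatment (low).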

[2] = biological target: full-length MALT1 protein (Strep-MALT1(1-824)-His) (Homo sapiens (Human), UniProt Q9UDY8); assay: MALT1 Biochemical Protease Assay (Ac-LRSR-AMC substrate); conditions: 10 nM FL MALT1, 200 μM Ac-LRSR-AMC, 4 h at RT; read-out: MALT1_Biochemical activity (Ac-LRSR-amc) IC50
Summary of the method: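 Full-length MALT1 pre-incubated with compounds (30 μM to 0.5 nM, 11 threefold steps) for 50 min at RT. After Ac-LRSR-AMC was added, the reaction ran 4 h at RT and AMC fluorescence was read. IC50 and Hill slope from curve fitting against no-enzyme and no-compound controls.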

OCI-Ly3 cells = assay: 4-day proliferation assay, OCI-Ly3; format: cell-based, human; conditions: Homo sapiens, 96 h, 4 days incubation, CellTiterGLO, read-out: Anti-proliferation: OCI-LY-3 IC50
Summary of the method: (§2)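 TMD8 and OCI-Ly3 cells were seeded at 10,000 per well and grown 4 days at 37° C, 5% CO2 without beta-mercaptoethanol. Viability was read by CellTiter-Glo luminescence. IC50 and Hill slope were fitted relative to the low control median.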

TMD8 cells = assay: 4-day proliferation assay, TMD8; format: cell-based; conditions: Homo sapiens, 96 h, 4 days incubation, CellTiterGLO, read-out: Anti-proliferation: TMD-8 IC50
Summary of the method: as §2

Jurkat cells = assay: PMA Induced IL2 Production In Jurkat Cells; format: cell-based; conditions: Homo sapiens, PMA/Ionomycin, 20 h, read-out: IL-2 prod h Jurkat PMA IC50
[3] = system: IL6 secretion by TMD8 ABC-DLBCL cells; assay: Human IL6 Mesoscale assay (TMD-8); format: cell-based; conditions: Homo sapiens, TMD8; TMD-8 cells, 24 h
Summary of the method: as §1

Sequence of full-length MALT1 protein (Strep-MALT1(1-824)-His) (Q9UDY8 whole entry): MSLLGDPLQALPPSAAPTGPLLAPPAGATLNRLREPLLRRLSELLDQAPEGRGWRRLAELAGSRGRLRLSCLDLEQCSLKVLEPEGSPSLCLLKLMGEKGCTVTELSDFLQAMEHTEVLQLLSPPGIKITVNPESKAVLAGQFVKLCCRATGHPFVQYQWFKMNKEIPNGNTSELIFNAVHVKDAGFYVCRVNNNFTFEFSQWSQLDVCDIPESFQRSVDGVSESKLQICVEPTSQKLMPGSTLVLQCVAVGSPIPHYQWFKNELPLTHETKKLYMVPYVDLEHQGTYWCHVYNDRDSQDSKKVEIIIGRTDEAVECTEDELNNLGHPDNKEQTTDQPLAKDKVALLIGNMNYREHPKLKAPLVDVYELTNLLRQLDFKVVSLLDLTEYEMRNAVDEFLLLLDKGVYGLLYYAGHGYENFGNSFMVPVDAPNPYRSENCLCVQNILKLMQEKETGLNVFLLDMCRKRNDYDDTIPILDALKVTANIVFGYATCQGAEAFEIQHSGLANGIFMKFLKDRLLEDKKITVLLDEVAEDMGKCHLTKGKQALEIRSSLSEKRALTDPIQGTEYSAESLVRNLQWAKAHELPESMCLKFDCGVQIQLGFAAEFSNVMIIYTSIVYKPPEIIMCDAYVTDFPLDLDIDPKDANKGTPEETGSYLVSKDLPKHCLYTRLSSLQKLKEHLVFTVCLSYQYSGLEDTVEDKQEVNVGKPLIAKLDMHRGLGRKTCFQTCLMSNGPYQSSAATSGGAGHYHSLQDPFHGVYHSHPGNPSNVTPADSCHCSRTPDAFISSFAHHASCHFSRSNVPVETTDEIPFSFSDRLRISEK

N#Cc1cc(NC(=O)c2cnn(-c3cncc4ccccc34)c2C(F)(F)F)cnc1-n1nccn1 [Cpd 47, N-(5-cyano-6-(2H-1,2,3-triazol-2-yl)pyridin-3-yl)-1-(isoquinolin-4-yl)-5-(trifluoromethyl)-1H-pyrazole-4-carboxamide]
IC50 [1]: ~10 nM | IC50 [2]: 11 nM | IC50 (OCI-Ly3 cells): ~190 nM | IC50 (TMD8 cells): 8130 nM | IC50 (Jurkat cells): 9 nM | IC50 [3]: ~48 nM

CN1CCN(C(=O)c2ncc(NC(=O)c3cnn(-c4cncc5ccccc45)c3C(F)(F)F)cc2Cl)CC1 [Cpd 48, N-(5-chloro-6-(4-methylpiperazine-1-carbonyl)pyridin-3-yl)-1-(isoquinolin-4-yl)-5-(trifluoromethyl)-1H-pyrazole-4-carboxamide]
IC50 [1]: ~2140 nM | IC50 [2]: 631 nM | IC50 (OCI-Ly3 cells): 300 nM | IC50 (TMD8 cells): 16200 nM | IC50 (Jurkat cells): 450 nM | IC50 [3]: ~830 nM

N#Cc1ncc(NC(=O)c2cnn(-c3cncc4ccccc34)c2C(F)(F)F)cc1C(F)(F)F [Cpd 49, N-(6-cyano-5-(trifluoromethyl)pyridin-3-yl)-1-(isoquinolin-4-yl)-5-(trifluoromethyl)-1H-pyrazole-4-carboxamide]
IC50 [1]: 76 nM | IC50 [2]: 155 nM | IC50 (OCI-Ly3 cells): 410 nM | IC50 (TMD8 cells): 5010 nM | IC50 (Jurkat cells): 18 nM | IC50 [3]: ~83 nM

O=C(Nc1cnc(-c2ncco2)c(Cl)c1)c1cnn(-c2cncc3ccccc23)c1C(F)(F)F [Cpd 50, N-(5-Chloro-6-(oxazol-2-yl)pyridin-3-yl)-1-(isoquinolin-4-yl)-5-(trifluoromethyl)-1H-pyrazole-4-carboxamide]
IC50 [1]: 47 nM | IC50 [2]: 20 nM | IC50 (OCI-Ly3 cells): 90 nM | IC50 (TMD8 cells): 7080 nM | IC50 (Jurkat cells): 31 nM | IC50 [3]: 107 nM

Cc1ncnn1-c1ccc(NC(=O)c2cnn(-c3cncc4ccccc34)c2C(F)(F)F)cc1Cl [Cpd 51, N-(3-Chloro-4-(5-methyl-1H-1,2,4-triazol-1-yl)phenyl)-1-(isoquinolin-4-yl)-5-(trifluoromethyl)-1H-pyrazole-4-carboxamide]
IC50 [1]: 126 nM | IC50 [2]: 45 nM | IC50 (OCI-Ly3 cells): 200 nM | IC50 (TMD8 cells): ~6610 nM | IC50 (Jurkat cells): 96 nM | IC50 [3]: 62 nM

Cn1ccc(-c2ncc(NC(=O)c3cnn(-c4cncc5ccccc45)c3C(F)(F)F)cc2Cl)n1 [Cpd 52, N-(5-chloro-6-(1-methyl-1H-pyrazol-3-yl)pyridin-3-yl)-1-(isoquinolin-4-yl)-5-(trifluoromethyl)-1H-pyrazole-4-carboxamide]
IC50 [1]: 91 nM | IC50 [2]: 35 nM | IC50 (OCI-Ly3 cells): 210 nM | IC50 (TMD8 cells): 5010 nM | IC50 (Jurkat cells): 130 nM | IC50 [3]: 79 nM

Cc1ncn(-c2ncc(NC(=O)c3cnn(-c4cncc5ccccc45)c3C(F)(F)F)cc2Cl)n1 [Cpd 53, N-(5-Chloro-6-(3-methyl-1H-1,2,4-triazol-1-yl)pyridin-3-yl)-1-(isoquinolin-4-yl)-5-(trifluoromethyl)-1H-pyrazole-4-carboxamide]
IC50 [1]: 240 nM | IC50 [2]: 100 nM | IC50 (OCI-Ly3 cells): 1070 nM | IC50 (TMD8 cells): ~13500 nM | IC50 (Jurkat cells): 380 nM | IC50 [3]: 200 nM

Cc1ncnn1-c1ncc(NC(=O)c2cnn(-c3cncc4ccccc34)c2C(F)(F)F)cc1Cl [Cpd 54, N-(5-Chloro-6-(5-methyl-1H-1,2,4-triazol-1-yl)pyridin-3-yl)-1-(isoquinolin-4-yl)-5-(trifluoromethyl)-1H-pyrazole-4-carboxamide]
IC50 [1]: 269 nM | IC50 [2]: 275 nM | IC50 (OCI-Ly3 cells): 460 nM | IC50 (TMD8 cells): 8710 nM | IC50 (Jurkat cells): 370 nM | IC50 [3]: 110 nM

Cc1ncn(-c2ccc(NC(=O)c3cnn(-c4cncc5ccccc45)c3C(F)(F)F)cc2Cl)n1 [Cpd 55, N-(3-chloro-4-(3-methyl-1H-1,2,4-triazol-1-yl)phenyl)-1-(isoquinolin-4-yl)-5-(trifluoromethyl)-1H-pyrazole-4-carboxamide]
IC50 [1]: 195 nM | IC50 [2]: 182 nM | IC50 (OCI-Ly3 cells): 540 nM | IC50 (TMD8 cells): 5250 nM | IC50 (Jurkat cells): 130 nM | IC50 [3]: ~93 nM

O=C(Nc1ccc(-n2ccnn2)c(Cl)c1)c1cnn(-c2cncc3ccccc23)c1C(F)(F)F [compound 43, N-(3-chloro-4-(1H-1,2,3-triazol-1-yl)phenyl)-1-(isoquinolin-4-yl)-5-(trifluoromethyl)-1H-pyrazole-4-carboxamide]
IC50 [1]: 81 nM | IC50 [2]: 60 nM | IC50 (OCI-Ly3 cells): ~260 nM | IC50 (TMD8 cells): 4680 nM | IC50 (Jurkat cells): 54 nM | IC50 [3]: 102 nM

Reference: patent US10954214B2 (Janssen Pharmaceutica NV, priority 2016, dated 2021)
